Data reported in patent US10807957B2, “Tetradentate chelating monoquinoline derivative, manufacturing method thereof, and application of same as metal ion regulator for neurodegenerative disease” (GUANGDONG UNIVERSITY OF TECHNOLOGY, priority 2016, dated 2020).

Test: Affinity constants for Cu2+ by competitive chelation with UV/Vis monitoring
Format: binding
Details: Cu2+ versus Zn2+, pH 7.4
Method: Estimation of affinity constants of compounds of general formula (I) with metal ions: […]
Affinity Constants for Cu^2:
The following mother solutions were prepared: (A) ligand L=TDMQ-n, 300 μM in 20 mM Tris.HCl pH 7.4, 150 mM NaCl; (B) Competing ligands (namely NTA, EDTA, EDDA, EGTA, or CDTA), 300 μM in 20 mM Tris.HCl pH 7.4, 150 mM NaCl; (C) CuCl2, 15 mM in H2O. In the UV/Vis cuvette, 100 μL of (A), 100 μL of (B), 1800 μL of 20 mM Tris.HCl pH 7.4, 150 mM NaCl, and 2 μL of (C) were added in that order. The final concentrations of L, Competing ligand (LC), and Cu^2+ were 15 μM.
The spectrum of the ligand L (2 μL of H2O instead of 2 μL of (C)) was recorded according to above conditions; and the spectrum of [Cu^2+−L] (100 μL of 20 mM Tris.HCl pH 7.4, 150 mM NaCl, instead of 100 μL of (B)) was recorded according to above conditions. All ligands and complexes studied followed the Beer-Lambert law in the experimental conditions used.
The equations of complexation are as follows: […]
It can be deduced that at the equilibrium:
UV/Vis monitoring at 383 nm allowed to determine the absorbance of the competitive chelation mixture (Amix), the absorbance of L in the absence of Cu^2+ (AL), and the absorbance of CuL in the absence of competing ligand (ACu-L). The proportion of Cu^2+ chelated by L was calculated as x=(AL-Amix)/(AL-ACu-L). Experiments were performed in triplicate.

Structure (SMILES) | difference between binding constants for copper and zinc
CN(C)CCCNCc1ccc2c(Cl)cc(Cl)c(N)c2n1 [TDMQ-19, N^1-((8-amino-5,7-dichloroquinolin-2-yl)methyl)-N^3,N3-dimehypropane-1,3-diamine] | 10 orders of magnitude
CN(C)CCNCCc1ccc2c(Cl)cc(Cl)c(N)c2n1 [TDMQ-20, N^1-(2-(8-amino-5,7-dichloroquinolin-2-yl)ethyl)-N^2,N^2-dimethylethane-1,2-diamine] | 12 orders of magnitude
